Laboratory results taken from ChEMBL document CHEMBL5260807, “Discovery of liver-directed glucokinase activator having anti-hyperglycemic effect without hypoglycemia” (Eur J Med Chem, 2017).

Tests used:
[1] = target: T1, Hexokinase-4 (Homo sapiens, UniProt P35557); assay: Activation of recombinant human glucokinase assessed as increase in maximal activation by measuring accumulation of NADH in presence of S0.5 of glucose and NAD by plate reader analysis
T1 sequence (P35557 whole entry): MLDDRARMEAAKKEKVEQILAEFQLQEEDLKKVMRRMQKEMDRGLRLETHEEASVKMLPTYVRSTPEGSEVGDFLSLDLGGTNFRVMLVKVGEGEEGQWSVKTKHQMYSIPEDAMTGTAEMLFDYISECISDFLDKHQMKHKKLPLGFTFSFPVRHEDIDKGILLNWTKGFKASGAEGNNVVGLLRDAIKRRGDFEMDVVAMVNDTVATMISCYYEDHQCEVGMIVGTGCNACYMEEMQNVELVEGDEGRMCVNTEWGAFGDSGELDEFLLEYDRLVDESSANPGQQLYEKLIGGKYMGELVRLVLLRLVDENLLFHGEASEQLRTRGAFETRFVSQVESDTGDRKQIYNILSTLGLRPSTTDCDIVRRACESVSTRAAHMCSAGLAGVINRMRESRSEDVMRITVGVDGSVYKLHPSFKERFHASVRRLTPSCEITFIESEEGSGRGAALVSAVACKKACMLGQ

[2] = target: T2, Hexokinase-4 (Rattus norvegicus) (UniProt P17712); assay: Activation of glucokinase in rat Primary hepatocytes assessed as fold increase in glycogen synthesis at 10 uM incubated for 30 mins using [U14C]-D-glucose as substrate by Microbeta TriLux luminescence counter analysis; format: cell-based; details: Primary hepatocyte, filed as activator
T2 sequence (whole entry): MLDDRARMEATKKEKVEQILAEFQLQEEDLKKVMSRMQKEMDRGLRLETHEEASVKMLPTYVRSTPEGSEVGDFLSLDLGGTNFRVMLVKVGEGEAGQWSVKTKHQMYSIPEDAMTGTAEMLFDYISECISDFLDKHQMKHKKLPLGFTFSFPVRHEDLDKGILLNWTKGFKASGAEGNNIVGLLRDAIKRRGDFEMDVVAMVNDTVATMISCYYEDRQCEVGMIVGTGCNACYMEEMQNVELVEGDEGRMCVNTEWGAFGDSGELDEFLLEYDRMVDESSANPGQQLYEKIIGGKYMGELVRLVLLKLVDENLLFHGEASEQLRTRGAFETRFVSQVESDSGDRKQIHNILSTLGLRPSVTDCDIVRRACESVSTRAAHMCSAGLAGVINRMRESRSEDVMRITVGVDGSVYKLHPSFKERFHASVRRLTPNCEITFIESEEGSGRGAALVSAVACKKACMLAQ

[3] = Cmax in C57BL/6J mouse at 30 mg/kg,po and measured after 2 hrs by LC-MS/MS analysis; format: ADME, organism-based; set-up: dose 30 mg/kg, time 2 hrs, route po; details: in vivo
[4] = Oral bioavailability in C57BL/6J mouse at 30 mg/kg and measured after 2 hrs by LC-MS/MS analysis; format: ADME, organism-based; details: in vivo
[5] = Drug distribution in C57BL/6J mouse liver at 30 mg/kg,po and measured after 1 hrs by LC-MS/MS analysis; format: ADME, organism-based; details: read-out: Drug uptake
[6] = Drug distribution in C57BL/6J mouse liver at 30 mg/kg,po and measured after 3 hrs by LC-MS/MS analysis; format: ADME, organism-based; details: read-out: Drug uptake
[7] = Drug distribution in C57BL/6J mouse in circulatory system at 30 mg/kg,po and measured after 1 hrs by LC-MS/MS analysis; format: ADME, organism-based; details: read-out: Drug uptake
[8] = Drug distribution in C57BL/6J mouse in circulatory system at 30 mg/kg,po and measured after 3 hrs; format: ADME, organism-based; details: read-out: Drug uptake
[9] = AUC(0 to t) in C57BL/6J mouse at 30 mg/kg,po; format: ADME, organism-based; set-up: dose 30 mg/kg, route po; details: in vivo
[10] = Clearance in C57BL/6J mouse at 3 mg/kg,iv and measured after 2 hrs by LC-MS/MS analysis; format: ADME, organism-based; details: in vivo
[11] = Volume of distribution at steady state in C57BL/6J mouse at 3 mg/kg,iv and measured after 2 hrs by LC-MS/MS analysis; format: ADME, organism-based; details: in vivo, read-out: Vdss
[12] = Half life in C57BL/6J mouse at 3 mg/kg,iv and measured after 2 hrs by LC-MS/MS analysis; format: ADME, organism-based; details: in vivo
[13] = Drug uptake in mouse hepatocytes at 1 to 100 uM incubated for 5 mins at 37 degreeC by LC-MS/MS analysis; format: ADME, cell-based, Hepatocyte; details: dose 1-100 µM
[14] = Drug uptake in mouse hepatocytes at 1 to 100 uM incubated for 5 mins at 4 degreeC by LC-MS/MS analysis; format: ADME, cell-based, Hepatocyte; details: dose 1-100 µM
[15] = Inhibition of drug uptake in mouse hepatocytes at 1 to 100 uM incubated for 5 mins in presence of rifamycin SV by LC-MS/MS analysis; format: cell-based, Hepatocyte; details: dose 1-100 µM
[16] = system: Mus musculus; assay: Anti-hyperglycemic activity against diet induced obese C57BL/6J mouse assessed as reduction in AUCglucose level at 30 mg/kg ,po and measured upto 180 mins by OGTT; format: functional; set-up: scale not given: the % may be the effect or the level left; details: 3 h
[17] = system: Mus musculus; assay: Anti-hyperglycemic activity against diet induced obese C57BL/6J mouse assessed as reduction in AUCglucose level at 100 mg/kg ,po and measured upto 180 mins by OGTT; format: functional; set-up: scale not given: the % may be the effect or the level left; details: 3 h
[18] = Hypoglycemic activity in normoglycemic C57BL/6J mouse at 300 mg/kg ,po and measured upto 180 mins by glucose analysis; format: toxicity, organism-based; details: in vivo, 3 h
[19] = Hypoglycemic activity in normoglycemic C57BL/6J mouse assessed as decrease in blood glucose level at 300 mg/kg ,po and measured upto 180 mins by glucose analysis; format: toxicity, organism-based; details: in vivo, 3 h
[20] = AUC(0 to 24 hrs) in C57BL/6J mouse at 30 mg/kg,po and measured after 2 hrs by LC-MS/MS analysis; format: ADME, organism-based; set-up: time 2 hrs, dose 30 mg/kg, route po; details: in vivo
[21] = Clearance in C57BL/6J mouse at 1 mg/kg,iv and measured after 2 hrs by LC-MS/MS analysis; format: ADME, organism-based; details: in vivo
[22] = Volume of distribution at steady state in C57BL/6J mouse at 1 mg/kg,iv and measured after 2 hrs by LC-MS/MS analysis; format: ADME, organism-based; details: in vivo, read-out: Vdss
[23] = Half life in C57BL/6J mouse at 1 mg/kg,iv and measured after 2 hrs by LC-MS/MS analysis; format: ADME, organism-based; details: in vivo
[24] = system: Mus musculus; assay: Anti-hyperglycemic activity against diet induced obese C57BL/6J mouse assessed as blood glucose level at 10 to 300 mg/kg ,po and measured upto 180 mins by OGTT; format: functional, organism-based; details: dose 10-300 mg/kg
[25] = Hypoglycemic activity in normoglycemic C57BL/6J mouse assessed as decrease in blood glucose level at 100 mg/kg ,po and measured upto 180 mins by glucose analysis; format: toxicity, organism-based; details: in vivo, 3 h
[26] = Drug uptake in C57BL/6J mouse plasma at 30 mg/kg,po and measured after 1 hrs; format: ADME, organism-based
[27] = Drug uptake in C57BL/6J mouse plasma at 30 mg/kg,po and measured after 3 hrs; format: ADME, organism-based
[28] = target: T3, Hexokinase-4 (Homo sapiens) (UniProt P35557); assay: Activation of recombinant human glucokinase assessed as increase in maximal activation by measuring accumulation of NADH at 60 uM in presence of S0.5 of glucose and NAD by plate reader analysis; details: filed as activator
T3 sequence (whole entry): T1 sequence (P35557 whole entry)

`O=C(O)c1ccc(Oc2cnc(NC(=O)C(Oc3ccc(F)cc3F)c3ccc(S(=O)(=O)C4CC4)cc3)s2)cc1` (centres undefined) gave an EC50 [1] of 190 nM and a fold change (FC) [2] of 11.4.

For `O=C(O)c1ccc(Oc2cnc(NC(=O)[C@H](Oc3ccc(F)cc3F)c3ccc(S(=O)(=O)C4CC4)cc3)s2)cc1`, the Cmax [3] was 13.3 µM, the bioavailability [4] was 86% and the concentration at 1 h [5] was 215 µM. The concentration at 3 h [6] was 184 µM, the concentration at 1 h [7] was 6 µM and the concentration at 3 h [8] was 2.7 µM. For the same compound, the AUC(0-t) [9] was 22 µM·h, the EC50 [1] was 34 nM and the fold change (FC) [2] was 12.2. For the same compound, the clearance [10] was 32.6 mL/min/kg, the Vd [11] was 1.67 L/kg and the half-life [12] was 2.16 h. The Drug uptake [13] was 30%, the Drug uptake [14] was < 5% and the inhibition at 5 min, up to 100 µM ([15]; mouse hepatocytes, with rifamycin SV) was 90%. The Activity [16] was 21%, the Activity [17] was 34% and the Activity [18] was “Not Active”. For the same compound, the Activity [19] was “Active”.

Compound `O=C(O)c1ccc(Oc2cnc(NC(=O)C(Oc3ccc(F)cc3F)c3ccc(S(=O)(=O)N4CCCC4)cc3)s2)cc1` (centres undefined) has an EC50 [1] of 240 nM and a fold change (FC) [2] of 3.76.

In the case of `O=C(O)C#Cc1cnc(NC(=O)C(Oc2ccc(F)cc2F)c2ccc(S(=O)(=O)C3CC3)cc2)s1` (centres undefined), the EC50 [1] is reported as 2300 nM.

Work on `O=C(O)c1cccc(Oc2cnc(NC(=O)C(Oc3ccc(F)cc3F)c3ccc(S(=O)(=O)C4CC4)cc3)s2)c1` (centres undefined) yielded an EC50 [1] of 2730 nM.

`CC(C)(Oc1ccc(F)cc1F)C(=O)Nc1nc(CC(=O)O)c(Cl)s1` showed a Cmax [3] of 326 µM, an AUC(0-t) at 2 h [20] of 802 µM·h and a clearance [21] of 3.5 mL/min/kg. For the same compound, the Vd [22] was 0.4 L/kg, the half-life [23] was 1 h and the bioavailability [4] was 100%. The concentration at 1 h [5] was 111 µM, the concentration at 3 h [6] was 104 µM and the concentration at 1 h [7] was 220 µM. The concentration at 3 h [8] was 85 µM, the EC50 [1] was 7000 nM and the Activity [24] was “Dose-Dependent Effect”. The Activity [25] was < 60 mg/dL, the Drug uptake [13] was < 5% and the Drug uptake [14] was 5%. The “inhibition (INH)” value ([15]; hepatocytes, 5 min, 100 µM) was “Not Active”.

With `O=C(O)c1ccc(Oc2cnc(NC(=O)C(Oc3ccc(F)cc3F)c3ccc(S(=O)(=O)N4CCOCC4)cc3)s2)cc1` (centres undefined) the EC50 [1] was 330 nM and the fold change (FC) [2] was 3.

For `O=C(O)C1CCN(Cc2cnc(NC(=O)C(Oc3ccc(F)cc3F)c3ccc(S(=O)(=O)C4CC4)cc3)s2)CC1` (centres undefined), the EC50 [1] was > 10000 nM.

`O=C(O)c1ccc(Oc2cnc(NC(=O)C(Oc3ccc(F)cc3F)c3ccc(S(=O)(=O)C4CCOCC4)cc3)s2)cc1` (centres undefined) showed an EC50 [1] of 310 nM and a fold change (FC) [2] of 3.04.

`CC(C)(Oc1ccc(F)cc1F)C(=O)Nc1ncc(Oc2ccc(C(=O)O)cc2)s1` gave a concentration at 1 h [5] of 23.3 µM, a concentration at 3 h [6] of 11.1 µM and an EC50 [1] of 6200 nM. For the same compound, the concentration at 1 h [26] was 8.8 µM and the concentration at 3 h [27] was 1.4 µM.

`O=C(O)Cc1nc(NC(=O)C(Oc2ccc(F)cc2F)c2ccc(S(=O)(=O)N3CCCCC3)cc2)sc1Cl` (centres undefined) showed an EC50 [1] of 500 nM.

For `O=C(Nc1ncc(CN2CCCC2C(=O)O)s1)C(Oc1ccc(F)cc1F)c1ccc(S(=O)(=O)C2CC2)cc1` (centres undefined), the EC50 [1] was > 10000 nM.

With `CC(Oc1ccc(F)cc1F)(C(=O)Nc1nc(CC(=O)O)c(Cl)s1)c1ccc(S(=O)(=O)N2CCCCC2)cc1` (centres undefined) the EC50 [1] was > 20000 nM and the Activity [28] was 60%.

Work on `O=C(O)c1ccc(Oc2cnc(NC(=O)[C@@H](Oc3ccc(F)cc3F)c3ccc(S(=O)(=O)C4CC4)cc3)s2)cc1` yielded an EC50 [1] of 690 nM.

In the case of `O=C(O)c1ccc(Cc2cnc(NC(=O)C(Oc3ccc(F)cc3F)c3ccc(S(=O)(=O)C4CC4)cc3)s2)cc1` (centres undefined), the EC50 [1] is reported as 450 nM.

Work on `O=C(O)c1ccc(Oc2cnc(NC(=O)C(Oc3ccc(F)cc3F)c3ccc(S(=O)(=O)N4CCCCC4)cc3)s2)cc1` (centres undefined) yielded a fold change (FC) [2] of 3.4.

`O=C(O)Cc1ccc(Oc2cnc(NC(=O)C(Oc3ccc(F)cc3F)c3ccc(S(=O)(=O)C4CC4)cc3)s2)cc1` (centres undefined) gave an EC50 [1] of 400 nM.
